Assay results taken from the SangsterLogP compilation.

Row | Structure (SMILES) | logP
1 | COC(=O)c1sc2c(OC)ccc(OC)c2c1N | 2.97
2 | COC(=O)c1cc2ccccc2s1 | 3.21
3 | O=Cc1sc2ccc(Cl)cc2c1Br | 3.89
4 | CN(C)N=Cc1cc2cc(Cl)ccc2s1 | 4.18
5 | COc1ccc(OC)c2sc(C=O)cc12 | 2.75
6 | COC(=O)c1cc2ccc([N+](=O)[O-])cc2s1 | 3.06
7 | COc1ccc(OC)c2sc(CO)cc12 | 2.11
8 | CN(C)N=Cc1sc2ccc(Cl)cc2c1Br | 4.54
9 | OCc1sc2ccc(Cl)cc2c1Br | 3.6

More lines, now with the values ahead:

Row | logP | Structure (SMILES)
10 | 2.08 | OCc1cc2ccccc2s1
11 | 3.81 | COC(=O)c1cc2cc(Cl)ccc2s1
12 | 2.94 | O=Cc1cc2cc(Cl)ccc2s1
13 | 2.71 | OCc1cc2cc(Cl)ccc2s1
